From patent US7674819B2 (Warner-Lambert Company LLC, priority 2005, dated 2010)
Where two headings read alike, the source gives them in different places.

Molecular target: T1, hAR (Homo sapiens, UniProt P10275)
T1 sequence (P10275 1-920): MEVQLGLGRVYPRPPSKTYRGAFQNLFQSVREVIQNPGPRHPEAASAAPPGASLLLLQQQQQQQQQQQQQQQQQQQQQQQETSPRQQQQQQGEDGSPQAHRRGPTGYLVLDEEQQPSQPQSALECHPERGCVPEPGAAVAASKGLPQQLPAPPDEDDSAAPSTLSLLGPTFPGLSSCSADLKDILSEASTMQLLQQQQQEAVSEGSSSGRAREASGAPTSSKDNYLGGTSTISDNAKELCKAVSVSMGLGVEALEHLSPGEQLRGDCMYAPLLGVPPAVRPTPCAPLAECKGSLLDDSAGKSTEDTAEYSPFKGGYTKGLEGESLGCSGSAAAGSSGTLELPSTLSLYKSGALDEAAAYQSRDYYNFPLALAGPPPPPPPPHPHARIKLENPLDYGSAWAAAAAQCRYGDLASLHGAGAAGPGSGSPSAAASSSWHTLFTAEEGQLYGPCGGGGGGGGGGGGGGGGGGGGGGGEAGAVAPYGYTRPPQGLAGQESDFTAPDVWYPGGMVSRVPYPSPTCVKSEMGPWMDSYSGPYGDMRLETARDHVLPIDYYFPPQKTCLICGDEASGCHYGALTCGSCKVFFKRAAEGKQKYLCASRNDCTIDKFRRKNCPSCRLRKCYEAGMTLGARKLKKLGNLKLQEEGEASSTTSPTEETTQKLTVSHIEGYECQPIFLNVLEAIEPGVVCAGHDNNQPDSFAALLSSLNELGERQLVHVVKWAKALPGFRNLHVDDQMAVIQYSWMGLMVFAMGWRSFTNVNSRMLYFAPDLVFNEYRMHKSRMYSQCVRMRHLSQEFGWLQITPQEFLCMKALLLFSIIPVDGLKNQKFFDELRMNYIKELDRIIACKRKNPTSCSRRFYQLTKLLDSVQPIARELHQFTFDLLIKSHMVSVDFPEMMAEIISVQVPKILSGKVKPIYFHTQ
Assay: Competitive binding of 3H-DHT to baculovirus/Sf9 generated hAR extracts
Settings: one hour at 4° C., mean of multiple tests
Protocol: The description below describes how the assay was carried out.
Competitive binding analysis was performed on baculovirus/Sf9 generated hAR extracts in the presence or absence of different concentrations of test agent and a fixed concentration of ^3H-dihydrotestosterone (^3H-DHT) as tracer. This binding assay method is a modification of a protocol previously described (Liao S., et. al. J. Steroid Biochem. 20:11-17 1984). Briefly, progressively decreasing concentrations of compounds are incubated in the presence of hAR extract (Chang et al. P.N.A.S. Vol. 89, pp. […], 1992), hydroxylapatite, and 1 nM^3H-DHT for one hour at 4° C. Subsequently, the binding reactions are washed three times to completely remove excess unbound ^3H-DHT. hAR bound ^3H-DHT levels are determined in the presence of compounds (i.e. competitive binding) and compared to levels bound when no competitor is present (i.e. maximum binding). Compound binding affinity to the hAR is expressed as the concentration of compound at which one half of the maximum binding is inhibited.

[1] = concentration at which one half of maximum binding of 1 nM 3H-DHT to hAR is inhibited, read-out: IC50
[2] = IC50, concentration at which one half of maximum binding of 1 nM 3H-DHT to hAR is inhibited

Compound | IC50 [1] | IC50 [2]
CC1(C)CN(C(=O)c2ccccc2)C(=O)C1Oc1ccc(C#N)c(C(F)(F)F)c1 (racemic) [Example 97, (±) 4-{1-Benzoyl-4,4-dimethyl-2-oxo-pyrrolidin-3-yloxy)-2-trifluoromethyl benzonitrile}] | 311 nM | 
CC1(C)CNC(=O)C1Oc1ccc(C#N)c(C(F)(F)F)c1 (single isomer, unassigned; (+)) [Example 3, (+)-4-(4,4-Dimethyl-2-oxo-pyrrolidin-3-yloxy)-2-trifluoromethyl-benzonitrile] |  | 435 nM
CCCN1CC(C)(C)[C@H](Oc2ccc(C#N)c(C(F)(F)F)c2)C1=O [Example 4B, (−)-4-(1-Propyl-4,4-dimethyl-2-oxo-pyrrolidin-3-yloxy)-2-trifluoromethyl-benzonitrile (E1)] |  | > 10000 nM
COc1ccc(CN2CC(C)(C)C(Oc3ccc(C#N)c(C(F)(F)F)c3)C2=O)cc1 (stereo not shown) [Example 7, 4-[1-(4-Methoxy-benzyl)-4,4-dimethyl-2-oxo-pyrrolidin-3-yloxy]-2-trifluoromethyl-benzonitrile] |  | 298 nM
COc1ccccc1CN1CC(C)(C)C(Oc2ccc(C#N)c(C(F)(F)F)c2)C1=O (stereo not shown) [Example 10, 4-[1-(2-Methoxy-benzyl)-4,4-dimethyl-2-oxo-pyrrolidin-3-yloxy]-2-trifluoromethyl-benzonitrile] |  | 298 nM
CCN1CC(C)(C)C(Oc2ccc(C#N)c(C(F)(F)F)c2)C1=O (stereo not shown) [Example 21, 4-(1-Ethyl-4,4-dimethyl-2-oxo-pyrrolidin-3-yloxy)-2-trifluoromethyl-benzonitrile] | 403 nM | 
CC1(C)CN(Cc2cccc(C(=O)O)c2)C(=O)C1Oc1ccc(C#N)c(C(F)(F)F)c1 (stereo not shown) [Example 26, 3-[3-(4-Cyano-3-trifluoromethyl-phenoxy)-4,4-dimethyl-2-oxo-pyrrolidin-1-ylmethyl]-benzoic acid] | 343 nM | 
CCCCCN1CC(C)(C)C(Oc2ccc(C#N)c(C(F)(F)F)c2)C1=O (stereo not shown) [Example 31, 4-(4,4-Dimethyl-2-oxo-1-pentyl-pyrrolidin-3-yloxy)-2-trifluoromethyl-benzonitrile] |  | 268 nM
CC1(C)CN(CC2CC2)C(=O)C1Oc1ccc(C#N)c(C(F)(F)F)c1 (stereo not shown) [Example 32, 4-(1-Cyclopropylmethyl-4,4-dimethyl-2-oxo-pyrrolidin-3-yloxy)-2-trifluoromethyl-benzonitrile] | 420 nM | 
CCC(CC)CN1CC(C)(C)C(Oc2ccc(C#N)c(C(F)(F)F)c2)C1=O (stereo not shown) [Example 33, 4-[1-(2-Ethyl-butyl)-4,4-dimethyl-2-oxo-pyrrolidin-3-yloxy]-2-trifluoromethyl-benzonitrile] |  | 478 nM
CC1(C)CN(Cc2cccc(C(F)(F)F)c2)C(=O)C1Oc1ccc(C#N)c(C(F)(F)F)c1 (stereo not shown) [Example 34, 4-[4,4-Dimethyl-2-oxo-1-(3-trifluoromethyl-benzyl)-pyrrolidin-3-yloxy]-2-trifluoromethyl-benzonitrile] | 437 nM | 
CC1(C)CN(Cc2ccc(SC(F)(F)F)cc2)C(=O)C1Oc1ccc(C#N)c(C(F)(F)F)c1 (stereo not shown) [Example 36, 4-[4,4-Dimethyl-2-oxo-1-(4-trifluoromethylsulfanyl-benzyl)-pyrrolidin-3-yloxy]-2-trifluoromethyl-benzonitrile] | 484 nM | 
Cc1ccc(Cc2noc(CN3CC(C)(C)C(Oc4ccc(C#N)c(C(F)(F)F)c4)C3=O)n2)cc1 (stereo not shown) [Example 43, 4-{4,4-Dimethyl-1-[3-(4-methyl-benzyl)-[1,2,4]oxadiazol-5-ylmethyl]-2-oxo-pyrrolidin-3-yloxy}-2-trifluoromethyl-benzonitrile] | 283 nM | 
CC1(C)CN(Cc2ccc(S(C)(=O)=O)cc2)C(=O)C1Oc1ccc(C#N)c(C(F)(F)F)c1 (stereo not shown) [Example 44, 4-[1-(4-Methanesulfonyl-benzyl)-4,4-dimethyl-2-oxo-pyrrolidin-3-yloxy]-2-trifluoromethyl-benzonitrile] | 346 nM | 
CC1(C)CN(Cc2nc(-c3ccncc3)no2)C(=O)C1Oc1ccc(C#N)c(C(F)(F)F)c1 (stereo not shown) [Example 49, 4-[4,4-Dimethyl-2-oxo-1-(3-pyridin-4-yl-[1,2,4]oxadiazol-5-ylmethyl)-pyrrolidin-3-yloxy]-2-trifluoromethyl-benzonitrile] | 214 nM | 
COc1ccccc1-c1nc(CN2CC(C)(C)C(Oc3ccc(C#N)c(C(F)(F)F)c3)C2=O)no1 (stereo not shown) [Example 51, 4-{1-[5-(2-Methoxy-phenyl)-[1,2,4]oxadiazol-3-ylmethyl]-4,4-dimethyl-2-oxo-pyrrolidin-3-yloxy}-2-trifluoromethyl-benzonitrile] | 321 nM | 
CC1(C)CN(CC2CCCCC2)C(=O)C1Oc1ccc(C#N)c(C(F)(F)F)c1 (stereo not shown) [Example 53, 4-(1-Cyclohexylmethyl-4,4-dimethyl-2-oxo-pyrrolidin-3-yloxy)-2-trifluoromethyl-benzonitrile] | 294 nM | 
Cn1c(CN2CC(C)(C)C(Oc3ccc(C#N)c(C(F)(F)F)c3)C2=O)nc2ccccc21 (stereo not shown) [Example 55, 4-[4,4-Dimethyl-1-(1-methyl-1H-benzoimidazol-2-ylmethyl)-2-oxo-pyrrolidin-3-yloxy]-2-trifluoromethyl-benzonitrile] | 500 nM | 
COC(=O)c1ccoc1CN1CC(C)(C)C(Oc2ccc(C#N)c(C(F)(F)F)c2)C1=O (stereo not shown) [Example 58, 2-[3-(4-Cyano-3-trifluoromethyl-phenoxy)-4,4-dimethyl-2-oxo-pyrrolidin-1-ylmethyl]-furan-3-carboxylic acid methyl ester] | 313 nM | 
Cc1onc(-c2ccccc2)c1CN1CC(C)(C)C(Oc2ccc(C#N)c(C(F)(F)F)c2)C1=O (stereo not shown) [Example 59, 4-[4,4-Dimethyl-1-(5-methyl-3-phenyl-isoxazol-4-ylmethyl)-2-oxo-pyrrolidin-3-yloxy]-2-trifluoromethyl-benzonitrile] | 277 nM | 
CC1(C)CN(Cc2ccc(-n3cncn3)cc2)C(=O)C1Oc1ccc(C#N)c(C(F)(F)F)c1 (stereo not shown) [Example 62, 4-[4,4-Dimethyl-2-oxo-1-(4-[1,2,4]triazol-1-yl-benzyl)-pyrrolidin-3-yloxy]-2-trifluoromethyl-benzonitrile] | 293 nM | 
CC1(C)CN(Cc2nc(-c3ccc(C4SCCS4)cc3)no2)C(=O)C1Oc1ccc(C#N)c(C(F)(F)F)c1 (stereo not shown) [Example 63, 4-{1-[3-(4-[1,3]Dithiolan-2-yl-phenyl)-[1,2,4]oxadiazol-5-ylmethyl]-4,4-dimethyl-2-oxo-pyrrolidin-3-yloxy}-2-trifluoromethyl-benzonitrile] | 500 nM | 
CC1(C)CN(CC2CCC2)C(=O)C1Oc1ccc(C#N)c(C(F)(F)F)c1 (stereo not shown) [Example 64, 4-(1-Cyclobutylmethyl-4,4-dimethyl-2-oxo-pyrrolidin-3-yloxy)-2-trifluoromethyl-benzonitrile] | 254 nM | 
CC1(C)CN(Cc2nc(-c3cccc([N+](=O)[O-])c3)no2)C(=O)C1Oc1ccc(C#N)c(C(F)(F)F)c1 (stereo not shown) [Example 67, 4-{4,4-Dimethyl-1-[3-(3-nitro-phenyl)-[1,2,4]oxadiazol-5-ylmethyl]-2-oxo-pyrrolidin-3-yloxy}-2-trifluoromethyl-benzonitrile] | 437 nM | 
Cc1noc(C)c1S(=O)(=O)N1CC(C)(C)C(Oc2ccc(C#N)c(C(F)(F)F)c2)C1=O (stereo not shown) [Example 76, 4-[1-(3,5-Dimethyl-isoxazole-4-sulfonyl)-4,4-dimethyl-2-oxo-pyrrolidin-3-yloxy]-2-trifluoromethyl-benzonitrile] | 430 nM | 
